What all share (experiment): Competitive assay with nitrocefin (RSAI)
The target in one test is TEM-2 (Escherichia coli, UniProt P62593, Q37K). The test is classed as biochemical, E. coli 1725E. From the text:
(§1) It is convenient to express the results in terms of a Relative Substrate Affinity Index (RSAI) value.
(§2) RSAI = Concentration of competing substrate which gives 50% inhibition of ring-opening hydrolysis of the chromogenic substrate
(§3) Concentration of chromogenic substrate in the assay A high RSAI value therefore indicates a low affinity of the beta-lactamase for that competing substrate, and therefore predicts resistance of a beta-lactam competing substrate to hydrolysis by the beta-lactamase. Low RSAI values, in contrast, predict sensitivity to hydrolysis by a beta-lactamase.
(§4) Beta-lactam antibiotics which bind to the TEM-2 enzyme compete with nitrocefin in the assay. […] . This concentration of ampicillin is a direct estimate of the relative affinity of the TEM-2 enzyme for ampicillin. […] . The RSAI value was therefore 1.3.

The next test has as its system HMS-1. The test is classed as biochemical, E. coli 1946.
Test [1] has as its target T1, Chromosomal, constitutive beta-lactamase enzyme (Enterobacter cloacae, UniProt P05364).
T1 construct: Normally, therefore, the beta-lactamase has to be extracted from the cells for the purpose of the present invention; endogenous in cells
The test is classed as biochemical, E. cloacae.

Another test relates to PSE-3. The test is classed as biochemical, Ps.aerug. 1920E.
In test [2] the target is T2, Chromosomal, induced beta-lactamase enzyme (Pseudomonas aeruginosa, UniProt P24735).
T2 construct: Normally, therefore, the beta-lactamase has to be extracted from the cells for the purpose of the present invention; endogenous in cells; host or cells: Pseudomonas aeruginosa 1937E grown with ampicillin
The test is classed as biochemical, Ps.aerug. 1937E + ampicillin.

In the next test the test system is K10317. The test is classed as biochemical, K.aerog. 10317.
Description: as §1, §2, §3, §4

The subject of the next test is K1073. The test is classed as biochemical, Klebsiella 1073.
Description: as §1, §2, §3, §4

Another test deals with K17. The test is classed as biochemical, Klebsiella 17.
Description: as §1, §2, §3, §4

The target in another test is OXA-3 (Pseudomonas aeruginosa, UniProt Q51429). The test is classed as biochemical, E. coli R57B. The arrangement: Normally, therefore, the beta-lactamase has to be extracted from the cells for the purpose of the present invention; endogenous in cells.
Another test addresses PSE-1 (Pseudomonas aeruginosa, UniProt Q03170). The test is classed as biochemical, Ps.aerug. 1937E. The arrangement: Normally, therefore, the beta-lactamase has to be extracted from the cells for the purpose of the present invention; endogenous in cells.
Another test deals with PSE-2 (Pseudomonas aeruginosa, UniProt P14489). The test is classed as biochemical, Ps.aerug. 1973E. Also on record: Normally, therefore, the beta-lactamase has to be extracted from the cells for the purpose of the present invention; endogenous in cells.
The next test addresses PSE-4 (Pseudomonas aeruginosa, UniProt P16897). The test is classed as biochemical, Ps.aerug. 1559E. The arrangement: Normally, therefore, the beta-lactamase has to be extracted from the cells for the purpose of the present invention; endogenous in cells.
A further test deals with SHV-1 (Escherichia coli, UniProt P0AD63). The test is classed as biochemical, E. coli 2008E. Also on record: the beta-lactamase has to be extracted from the cells for the purpose of the present invention; made in house; host or cells: E. coli 2008E (crude cell extract).
The target of a further test is TEM-1 (Escherichia coli, UniProt P62593). The test is classed as biochemical, E. coli 2136E. Also on record: the beta-lactamase has to be extracted from the cells for the purpose of the present invention; made in house; host or cells: E. coli 2136E (plasmid-bearing strain; crude cell extract).
The target in the next test is OXA-1 (Escherichia coli, UniProt P13661). The test is classed as biochemical, E. coli 1527E. The arrangement: the beta-lactamase has to be extracted from the cells for the purpose of the present invention; made in house; host or cells: E. coli 1527E according to the earlier reading (crude cell extract).
Test [3] deals with Chromosomal, hyper-induced beta-lactamase enzyme (Escherichia coli, UniProt P00811). The test is classed as biochemical, E. coli SNU35. Also on record: Normally, therefore, the beta-lactamase has to be extracted from the cells for the purpose of the present invention; endogenous in cells; host or cells: E. coli SNU 35 (artificially produced strain).
Another test addresses OXA-2 (Escherichia coli, UniProt P0A1V9). The test is classed as biochemical, E. coli R46. The arrangement: the beta-lactamase has to be extracted from the cells for the purpose of the present invention; made in house; host or cells: E. coli carrying R46 according to the earlier reading (crude cell extract).

Marks after values point to notes of the source that are not given here.

Take `CC1(C)S[C@@H]2[C@H](NC(=O)[C@H](NC(=O)N3CCN(S(C)(=O)=O)C3=O)c3ccccc3)C(=O)N2[C@H]1C(=O)O` [Mezlo-cillin, Mezlocillin]: the RSAI on TEM-2 is 6.3; in the test on HMS-1 it was 0.9; in [1], 0.4; with PSE-3, 0.8; in test [2], 0.26; with K10317 it was 16.4. Further, the RSAI came out at 5.5 in the test on K1073; 1.3 in the test on K17; 19.2 on OXA-3; 1.2 on PSE-1; 4.75 at PSE-2; 0.9 on PSE-4. For the same compound, the RSAI at SHV-1 is 3; on TEM-1, 3.6; at OXA-1 it was 1.9; in test [3], 0.3; on OXA-2, 19.4.
As for `CC1(C)S[C@@H]2[C@H](NC(=O)Cc3ccccc3)C(=O)N2[C@H]1C(=O)O` [Peni-cillin G, Penicillin G], the RSAI on TEM-2 amounted to 1; in the test with HMS-1, 0.5; in test [1], 0.08; in the test on PSE-3, 0.3; in [2], 0.13; in the test with K10317, 2.2. For the same compound, the RSAI turned out to be 2 in the test with K1073; 1.2 with K17; 0.4 on OXA-3; 0.6 on PSE-1; 0.2 at PSE-2; 0.48 on PSE-4. Moreover, the RSAI came to 1 at SHV-1; 3 at TEM-1; 0.2 at OXA-1; 0.18 in test [3]; 0.6 on OXA-2.
On to `CO/N=C(\C(=O)N[C@@H]1C(=O)N2C(C(=O)O)=C(CSc3nc(=O)c(=O)[nH]n3C)CS[C@H]12)c1csc(N)n1` [RO-13 9904], for which the RSAI is 600 at TEM-2; 14 in the test with HMS-1; 0.0003* in test [1]; 36 in the test with PSE-3; 38 in test [2]; 74 with K10317. For the same compound, the RSAI in the test on K1073 stood at 116; with K17, 4; at OXA-3, 3; on PSE-1 it was 14; at PSE-2 it was 0.76; on PSE-4, 42. Further, the RSAI turned out to be 160 on SHV-1; 400 on TEM-1; 0.9 at OXA-1; 0.01 in [3]; 10 at OXA-2.
In the case of `CC1(C)S[C@@H]2[C@H](NC(=O)[C@H](C(=O)O)c3ccsc3)C(=O)N2[C@H]1C(=O)O` [Ticar-cillin, ticarcillin], the RSAI at TEM-2 was 0.49; in the test with HMS-1, 0.175; in test [1] it was 0.0008*; in the test with PSE-3, 2; in [2] it was 0.0065; with K10317 it was 0.48. For the same compound, the RSAI is 0.485 in the test on K1073; 0.25 in the test with K17; 12 on OXA-3; 0.63 at PSE-1; 2.4 at PSE-2; 0.65 on PSE-4. Further, the RSAI was 0.23 on SHV-1; 0.035 on TEM-1; 0.65 on OXA-1; 0.001 in [3]; 26 on OXA-2.

(Values after patent EP0059645A1, “Method and kit for identification of beta-lactamases” (NATIONAL RESEARCH DEVELOPMENT CORPORATION, priority 1981, dated 1982).)
